Results on one molecule are retold here after patent US20180362766A1, “Fluorogenic pH-Sensitive Dyes and Their Methods of Use” (Life Technologies Corporation, priority 2012, published 2018).

The assay concerns phagocytic J774.2 murine macrophages. Kind of assay: No-wash phagocytosis assay with dye-conjugated E. coli bioparticles. The settings on record: E. coli bioparticles conjugated to a pH-sensitive fluorescent dye. It counts as cell-based. From the text: Certain embodiments provide for a no-wash, no-quench assay for phagocytosis that is based on fluorogenic bioparticles comprising the pH-sensitive fluorescent dye compounds provided herein. Current protocols for measuring phagocytosis that use fluorescent bioparticles, require a trypan blue quenching step and several washing steps. These steps can introduce significant variability in the assay. To address this issue, provided herein is a no-wash phagocytosis kit, using E. coli bioparticles conjugated to a pH-sensitive fluorescent dye as described herein. These bioparticle conjugates are weakly fluorescent at extracellular pH. […] The pH-sensitive fluorescent bioparticles described herein may be used in plate based, as well as imaging and flow cytometry assays of phagocytosis.

On to `C=C1[C@@H](C)[C@H]2[C@H](Cc3ccccc3)NC(=O)[C@]23[C@H](OC(C)=O)/C=C/[C@@](C)(O)C(=O)[C@@H](C)C/C=C/[C@H]3[C@@H]1O` [cytochalaisin D, cytochalasin D], for which the “inhibition of uptake of the bioparticles (phagocytosis)” value is recorded as “potently inhibited”.
